*1 amine or outer side, *2 acyl side, *3 side chain or, on linkers, in order; H or OH if unused. Where a SMILES comes first, the peptide text is derived from it. Bridges are numbered along the chain shown (N, C = ends). [ ]: non-standard residue; d: D form. The star is where a group is joined. NH(1-deoxy-D-glucityl) = OC[C@@H](O)[C@@H](O)[C@H](O)[C@@H](O)CN*; DOTA = O=C(O)CN1CCN(CC(=O)O)CCN(CC(=O)*)CCN(CC(=O)O)CC1; Trp(5-Cl) = N[C@@H](Cc1c[nH]c2ccc(Cl)cc12)C(=O)O; Pyridine(2,6-diCH2) = c1cc(C[*:1])nc(C[*:2])c1; Pro(4R-NH2) = N[C@H]1CN[C@H](C(=O)O)C1; Glutaryl = O=C(CCCC(=O)[*:2])[*:1]; X1 = O=C(CN1CCC(N[*:1])CC1)[*:2]; Api = NC1(C(=O)O)CCNCC1
Tests used:
Mouse GIPR = target: T1, Mouse GIPR (Mus musculus, UniProt Q0P543); assay: Radioligand binding assay, mouse GIPR; conditions: 111In-labeled compound, 6 h, 37° C., read-out: pKD Category (converted)
T1 construct: host or cells: CHO-VGT
T1 sequence (Q0P543 19-460): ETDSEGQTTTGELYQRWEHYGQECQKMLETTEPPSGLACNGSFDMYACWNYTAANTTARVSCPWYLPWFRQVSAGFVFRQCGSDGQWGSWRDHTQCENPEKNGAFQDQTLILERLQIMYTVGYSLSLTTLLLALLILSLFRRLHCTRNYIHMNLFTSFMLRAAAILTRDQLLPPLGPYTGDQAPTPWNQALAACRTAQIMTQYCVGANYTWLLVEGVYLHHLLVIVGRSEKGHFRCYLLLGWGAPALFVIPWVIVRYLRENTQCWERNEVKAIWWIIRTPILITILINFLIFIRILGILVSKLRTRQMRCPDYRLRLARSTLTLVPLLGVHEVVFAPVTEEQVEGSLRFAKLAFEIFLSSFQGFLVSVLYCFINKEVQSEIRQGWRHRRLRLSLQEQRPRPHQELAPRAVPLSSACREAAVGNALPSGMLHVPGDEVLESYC
Description: (§1) In order to assess the affinity of ^111In-labeled compounds to the GIPR receptor of different species, a radioligand binding assay was established.
(§2) CHO-K1 cells (GenScript Biotech, #M00486) were stably transfected with the human GIPR. CHO-K1-hGIPR cells were cultured in Ham's F12 medium (Sigma-Aldrich, #N4888) including 10% fetal calf serum (FCS), 2 mM L-glutamine, 100 U/mL penicillin, 100 µg/mL streptomycin, 200 µg/mL Zeocin and 100 µg/mL HygromycinB. To evaluate the species cross-reactivity, CHO-VGT cells were transfected with the human, dog, rat and mouse GIPR (Inscreenex GmbH), which were cultured in DMEM/Ham's F12 Medium 1:1 (Biochrom, #F485) including 5% fetal calf serum (FCS), 2 mM L-glutamine, 100 U/mL penicillin and 100 μg/mL streptomycin. Cells were detached with Accutase (Biolegend, #BLD-423201) and counted using a particle counter (CASY Model TT; Schärfe Systems). Cell concentrations were adjusted to 3×10^5 mL^−1, and 1.000 μL of the suspension per well were dispensed into flat-clear-bottom 24 well plates.
(§3) Approximately 24 hours after re-seeding, the medium was aspirated and the cells were washed once with 700 μL assay medium (Ham's medium with 20 mM HEPES). […]
(§4) At the end of incubation time, cells were washed and subsequently harvested in 300 μL RIPA buffer containing PIC. Radioactivity of the cell lysate of each well was counted using a gamma counter (Perkin Elmer). […]

[1] = Plasma stability assay, human plasma; assay type: in vitro ADME; conditions: 37° C., % intact compound remaining after 4 h or 24 h
Description: In order to determine the stability of selected compounds of the invention in human and mouse plasma, a plasma stability assay was carried out. Such plasma stability assay measures degradation of compounds of the present invention in blood plasma. This is an important characteristic of a compound as compounds, with the exception of pro-drugs, which rapidly degrade in plasma, generally show poor in vivo efficacy. […] The stability is sufficient for the diagnostic, therapeutic and theragnostic use of these compounds according to the present invention.
The plasma stability samples were prepared by spiking 50 μL plasma aliquots (all K2EDTA) with 1 μL of a 0.5 mM compound stock solution in DMS0. After vortexing the samples were incubated in a Thermomixer at 37° C. for 0, 4 and 24 hours. After incubation the samples were stored on ice until further treatment. All samples were prepared in duplicates.
A suitable internal standard was added to each sample (1 μL of a 0.5 mM stock solution in DMSO). Protein precipitation was performed by addition of 250 μL of acetonitrile containing 1% trifluoroacetic acid. After incubation at room temperature for 30 min the precipitate was separated by centrifugation and 150 μL of the supernatant was diluted with 150 μL of 1% aqueous formic acid.
Additionally, recovery was determined by spiking a pure plasma sample that only contained the internal standard after treatment with a certain amount of the compound.
Carry-over was evaluated by analysis of a blank sample (20% acetonitrile) after the highest calibration sample.

Human GIPR = target: T2, Human GIPR (Homo sapiens, UniProt P48546); assay: Radioligand binding assay, human GIPR; conditions: 111In-labeled compound, 6 h, 37° C., read-out: pKD Category (converted)
T2 construct: host or cells: CHO-K1 or CHO-VGT
T2 sequence (P48546 22-466): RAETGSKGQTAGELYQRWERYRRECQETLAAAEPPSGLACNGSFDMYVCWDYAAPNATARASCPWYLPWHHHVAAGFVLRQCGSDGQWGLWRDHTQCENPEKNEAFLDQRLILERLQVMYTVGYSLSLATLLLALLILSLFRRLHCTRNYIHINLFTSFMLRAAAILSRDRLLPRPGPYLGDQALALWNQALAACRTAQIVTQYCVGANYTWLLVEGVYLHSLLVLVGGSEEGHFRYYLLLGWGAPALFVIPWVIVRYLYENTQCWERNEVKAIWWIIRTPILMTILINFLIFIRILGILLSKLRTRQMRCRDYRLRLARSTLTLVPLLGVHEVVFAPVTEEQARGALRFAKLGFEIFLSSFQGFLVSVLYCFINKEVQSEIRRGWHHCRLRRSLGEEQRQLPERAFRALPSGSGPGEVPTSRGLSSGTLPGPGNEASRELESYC
Description: as §1, §2, §3, §4

[2] = target: Recombinant soluble human NEP (Homo sapiens, UniProt P08473); assay: Proteolytic stability assay against NEP; conditions: NEP 100 ng/mL, compound 10 μM, 37° C., % intact compound remaining
Recombinant soluble human NEP, sequence (P08473 52-750 limits assumed): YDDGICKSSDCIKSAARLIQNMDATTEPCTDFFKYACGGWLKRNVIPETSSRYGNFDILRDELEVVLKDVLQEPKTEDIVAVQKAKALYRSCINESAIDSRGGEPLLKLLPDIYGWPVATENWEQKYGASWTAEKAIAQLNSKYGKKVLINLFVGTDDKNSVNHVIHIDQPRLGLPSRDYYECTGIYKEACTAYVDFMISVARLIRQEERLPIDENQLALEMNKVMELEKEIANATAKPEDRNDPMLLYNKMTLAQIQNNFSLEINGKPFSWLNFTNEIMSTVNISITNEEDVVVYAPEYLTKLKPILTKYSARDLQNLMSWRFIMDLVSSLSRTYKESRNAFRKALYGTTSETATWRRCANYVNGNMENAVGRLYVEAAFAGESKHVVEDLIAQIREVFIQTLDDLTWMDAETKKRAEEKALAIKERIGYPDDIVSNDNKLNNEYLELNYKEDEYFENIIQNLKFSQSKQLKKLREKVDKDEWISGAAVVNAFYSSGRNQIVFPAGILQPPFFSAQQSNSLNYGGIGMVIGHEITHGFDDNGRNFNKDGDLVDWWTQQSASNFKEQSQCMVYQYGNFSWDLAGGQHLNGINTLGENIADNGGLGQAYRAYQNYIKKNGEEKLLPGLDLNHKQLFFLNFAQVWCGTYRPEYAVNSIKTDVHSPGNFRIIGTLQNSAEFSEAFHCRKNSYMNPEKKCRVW

Kd (Mouse GIPR): > 1 nM | Human plasma stability category [1]: A (>80% intact after 24 hours) | Kd (Human GIPR): < 0.316 nM | NEP stability category [2]: A (>80% intact after 24 hours)
SMILES: CC[C@H](C)[C@@H]1NC(=O)[C@H](CC(C)C)NC(=O)C2(CCN(C(=O)CN3CCN(CC(=O)O)CCN(CC(=O)O)CCN(CC(=O)O)CC3)CC2)NC(=O)[C@@H](NC(=O)[C@@H](CC(C)C)NC(=O)[C@H](CCC(=O)O)NC(=O)[C@@H]2C[C@@H](N)CN2C(=O)[C@H](Cc2c[nH]c3ccc(Cl)cc23)NC(=O)[C@H](Cc2c[nH]c3ccccc23)NC(=O)[C@H](CC(=O)O)NC(=O)CCCC(=O)NC[C@H](O)[C@@H](O)[C@H](O)[C@H](O)CO)CSCc2cccc(n2)CSC[C@@H](C(=O)NC2CCN(CC(=O)N[C@H](CCC(=O)NC[C@H](O)[C@@H](O)[C@H](O)[C@H](O)CO)C(N)=O)CC2)NC1=O [GIP-001, AGLU-Glutar-Asp-Trp-5Clw-Tap-Glu-leu-[Cys(2Lut)-Apc(DOTA)-Leu-Ile-Cys]-APAc-glu(AGLU)-NH2] ({NH(1-deoxy-D-glucityl)-Glutaryl}-DW[Trp(5-Cl)][Pro(4R-NH2)]E[dL]C[Api](DOTA)LIC[X1][dE](NH(1-deoxy-D-glucityl))-NH2; linker 7-11 via Pyridine(2,6-diCH2))
